Experiments:
Test in all cases: relative viability (nuclei count vs DMSO), 5 days (fraction); higher = more cells survive
NCI-H1703 = system: NCI-H1703
Procedure, shortened: (§1)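 Relative viability equals treated-well nuclei counts divided by vehicle-well nuclei counts. Counts came from 4× images of lung cancer cell lines grown in 1536-well plates for 5 days after pin-tool dosing on the day after seeding. Dosing used one drug alone or a fixed anchor-drug dose plus five library-drug doses (not always all listed) in √10 steps, and values are medians of duplicate plates.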

NCI-H1648 = system: NCI-H1648
Procedure, shortened: as §1

NCI-H522 = system: NCI-H522
Procedure, shortened: as §1

NCI-H2342 = system: NCI-H2342
Procedure, shortened: as §1

SW 900 = system: SW 900
Procedure, shortened: as §1

A549 = system: A549
Procedure, shortened: as §1

IA-LM = system: IA-LM
Procedure, shortened: as §1

NCI-H1563 = system: NCI-H1563
Procedure, shortened: as §1

Cc1cnc(-c2cnc(NCCNc3ccc(C#N)cn3)nc2-c2ccc(Cl)cc2Cl)[nH]1 + NC(=O)Nc1cc(-c2cccc(F)c2)sc1C(=O)N[C@H]1CCCNC1 [AZD7762] (partner 0.2 µM)
relative viability (NCI-H1703; first compound 0.08 µM): 0.14
relative viability (NCI-H1703; first compound 0.253 µM): 0.128
relative viability (NCI-H1703; first compound 2.53 µM): 0.13
relative viability (NCI-H1648; first compound 0.08 µM): 0.542
relative viability (NCI-H1648; first compound 0.253 µM): 0.579
relative viability (NCI-H1648; first compound 0.8 µM): 0.643
relative viability (NCI-H1648; first compound 2.53 µM): 0.624
relative viability (NCI-H522; first compound 0.08 µM): 0.868
relative viability (NCI-H522; first compound 0.253 µM): 0.798
relative viability (NCI-H522; first compound 0.8 µM): 0.768
relative viability (NCI-H522; first compound 2.53 µM): 0.789
relative viability (NCI-H2342; first compound 0.08 µM): 0.516
relative viability (NCI-H2342; first compound 0.253 µM): 0.473
relative viability (NCI-H2342; first compound 0.8 µM): 0.484
relative viability (NCI-H2342; first compound 2.53 µM): 0.46
relative viability (SW 900; first compound 0.08 µM): 0.736
relative viability (SW 900; first compound 0.253 µM): 0.548
relative viability (SW 900; first compound 0.8 µM): 0.507
relative viability (SW 900; first compound 2.53 µM): 0.452

Cc1cnc(-c2cnc(NCCNc3ccc(C#N)cn3)nc2-c2ccc(Cl)cc2Cl)[nH]1 + Nc1ncn([C@H]2C[C@H](O)[C@@H](CO)O2)c(=O)n1 [Decitabine] (partner 2 µM)
relative viability (A549; first compound 0.08 µM): 0.257
relative viability (A549; first compound 0.253 µM): 0.254
relative viability (A549; first compound 0.8 µM): 0.262
relative viability (A549; first compound 2.53 µM): 0.316
relative viability (NCI-H1648; first compound 0.08 µM): 0.444
relative viability (NCI-H1648; first compound 0.253 µM): 0.453
relative viability (NCI-H1648; first compound 0.8 µM): 0.554
relative viability (NCI-H1648; first compound 2.53 µM): 0.541
relative viability (NCI-H522; first compound 0.08 µM): 0.779
relative viability (NCI-H522; first compound 0.253 µM): 0.68
relative viability (NCI-H522; first compound 0.8 µM): 0.557
relative viability (NCI-H522; first compound 2.53 µM): 0.63
relative viability (NCI-H2342; first compound 0.08 µM): 0.727
relative viability (NCI-H2342; first compound 0.253 µM): 0.548
relative viability (NCI-H2342; first compound 0.8 µM): 0.671
relative viability (NCI-H2342; first compound 2.53 µM): 0.66
relative viability (SW 900; first compound 0.08 µM): 0.523
relative viability (SW 900; first compound 0.253 µM): 0.436
relative viability (SW 900; first compound 0.8 µM): 0.442
relative viability (SW 900; first compound 2.53 µM): 0.393

Cc1cnc(-c2cnc(NCCNc3ccc(C#N)cn3)nc2-c2ccc(Cl)cc2Cl)[nH]1 + O=C(CCCCCCC(=O)Nc1ccccc1)NO [Vorinostat] (partner 1 µM)
relative viability (NCI-H1648; first compound 0.08 µM): 0.718
relative viability (NCI-H1648; first compound 0.253 µM): 0.516
relative viability (NCI-H1648; first compound 0.8 µM): 0.241
relative viability (NCI-H1648; first compound 2.53 µM): 0.327
relative viability (NCI-H522; first compound 0.08 µM): 1.01
relative viability (NCI-H522; first compound 0.253 µM): 0.947
relative viability (NCI-H522; first compound 0.8 µM): 0.958
relative viability (NCI-H522; first compound 2.53 µM): 0.842
relative viability (NCI-H2342; first compound 0.08 µM): 0.753
relative viability (NCI-H2342; first compound 0.253 µM): 0.685
relative viability (NCI-H2342; first compound 0.8 µM): 0.838
relative viability (NCI-H2342; first compound 2.53 µM): 0.648
relative viability (SW 900; first compound 0.08 µM): 0.381
relative viability (SW 900; first compound 0.253 µM): 0.49
relative viability (SW 900; first compound 0.8 µM): 0.519
relative viability (SW 900; first compound 2.53 µM): 0.472
relative viability (IA-LM; first compound 0.08 µM): 1.16
relative viability (IA-LM; first compound 0.8 µM): 0.973
relative viability (IA-LM; first compound 2.53 µM): 0.888

O=C(O)CCCCC(CCSCc1ccccc1)SCc1ccccc1 (stereo not drawn) [CPI-613] + Nc1ncn([C@H]2C[C@H](O)[C@@H](CO)O2)c(=O)n1 [Decitabine] (partner 2 µM)
relative viability (A549; first compound 5 µM): 0.284
relative viability (A549; first compound 15.81 µM): 0.195
relative viability (A549; first compound 50 µM): 0.269
relative viability (A549; first compound 158.11 µM): 0.259
relative viability (A549; first compound 500 µM): 0.161
relative viability (NCI-H1648; first compound 5 µM): 0.568
relative viability (NCI-H1648; first compound 15.81 µM): 0.409
relative viability (NCI-H1648; first compound 50 µM): 0.57
relative viability (NCI-H1648; first compound 158.11 µM): 0.4
relative viability (NCI-H1648; first compound 500 µM): 0.172
relative viability (NCI-H522; first compound 5 µM): 0.678
relative viability (NCI-H522; first compound 15.81 µM): 0.585
relative viability (NCI-H522; first compound 50 µM): 0.697
relative viability (NCI-H522; first compound 158.11 µM): 0.627
relative viability (NCI-H522; first compound 500 µM): 0.3
relative viability (NCI-H2342; first compound 5 µM): 0.669
relative viability (NCI-H2342; first compound 15.81 µM): 0.656
relative viability (NCI-H2342; first compound 50 µM): 0.838
relative viability (NCI-H2342; first compound 158.11 µM): 0.78
relative viability (NCI-H2342; first compound 500 µM): 0.779
relative viability (SW 900; first compound 5 µM): 0.458
relative viability (SW 900; first compound 50 µM): 0.429
relative viability (SW 900; first compound 158.11 µM): 0.332
relative viability (SW 900; first compound 500 µM): 0.0668

O=C(O)CCCCC(CCSCc1ccccc1)SCc1ccccc1 (stereo not drawn) [CPI-613] + O=C(CCCCCCC(=O)Nc1ccccc1)NO [Vorinostat] (partner 1 µM)
relative viability (NCI-H1648; first compound 5 µM): 0.527
relative viability (NCI-H1648; first compound 15.81 µM): 0.336
relative viability (NCI-H1648; first compound 50 µM): 0.422
relative viability (NCI-H1648; first compound 158.11 µM): 0.142
relative viability (NCI-H1648; first compound 500 µM): 0.0754
relative viability (NCI-H522; first compound 5 µM): 0.841
relative viability (NCI-H522; first compound 15.81 µM): 0.812
relative viability (NCI-H522; first compound 50 µM): 0.833
relative viability (NCI-H522; first compound 158.11 µM): 0.741
relative viability (NCI-H522; first compound 500 µM): 0.244
relative viability (NCI-H2342; first compound 5 µM): 0.648
relative viability (NCI-H2342; first compound 15.81 µM): 0.629
relative viability (NCI-H2342; first compound 50 µM): 0.721
relative viability (NCI-H2342; first compound 158.11 µM): 0.763
relative viability (NCI-H2342; first compound 500 µM): 0.939
relative viability (SW 900; first compound 5 µM): 0.512
relative viability (SW 900; first compound 50 µM): 0.555
relative viability (SW 900; first compound 158.11 µM): 0.316
relative viability (SW 900; first compound 500 µM): 0.0227
relative viability (IA-LM; first compound 5 µM): 0.876
relative viability (IA-LM; first compound 15.81 µM): 0.869
relative viability (IA-LM; first compound 50 µM): 0.685
relative viability (IA-LM; first compound 500 µM): 0.937

O=c1[nH]c2ccccc2n1C1CCN(CCCC(c2ccc(F)cc2)c2ccc(F)cc2)CC1 [Pimozide] + Nc1nc2[nH]cc(CCc3ccc(C(=O)N[C@@H](CCC(=O)O)C(=O)O)cc3)c2c(=O)[nH]1 [Pemetrexed] (partner 0.2 µM)
relative viability (NCI-H1563; first compound 0.08 µM): 0.606
relative viability (NCI-H1563; first compound 0.253 µM): 0.849
relative viability (NCI-H1563; first compound 0.8 µM): 0.745
relative viability (NCI-H1563; first compound 2.53 µM): 0.781
relative viability (NCI-H1563; first compound 8 µM): 0.734
relative viability (NCI-H1648; first compound 0.08 µM): 0.818
relative viability (NCI-H1648; first compound 0.8 µM): 0.573
relative viability (NCI-H1648; first compound 2.53 µM): 0.673
relative viability (NCI-H1648; first compound 8 µM): 0.612
relative viability (NCI-H522; first compound 0.08 µM): 1.04
relative viability (NCI-H522; first compound 0.253 µM): 0.848
relative viability (NCI-H522; first compound 0.8 µM): 0.832
relative viability (NCI-H522; first compound 2.53 µM): 0.818
relative viability (NCI-H522; first compound 8 µM): 0.904
relative viability (NCI-H2342; first compound 0.08 µM): 0.796
relative viability (NCI-H2342; first compound 0.253 µM): 0.757
relative viability (NCI-H2342; first compound 0.8 µM): 0.634
relative viability (NCI-H2342; first compound 2.53 µM): 0.749
relative viability (NCI-H2342; first compound 8 µM): 0.752
relative viability (SW 900; first compound 0.08 µM): 0.483
relative viability (SW 900; first compound 0.253 µM): 0.465
relative viability (SW 900; first compound 2.53 µM): 0.447
relative viability (SW 900; first compound 8 µM): 0.418

O=c1[nH]c2ccccc2n1C1CCN(CCCC(c2ccc(F)cc2)c2ccc(F)cc2)CC1 [Pimozide] + Nc1ncn([C@H]2C[C@H](O)[C@@H](CO)O2)c(=O)n1 [Decitabine] (partner 2 µM)
relative viability (A549; first compound 0.08 µM): 0.307
relative viability (A549; first compound 0.253 µM): 0.208
relative viability (A549; first compound 0.8 µM): 0.211
relative viability (A549; first compound 2.53 µM): 0.312
relative viability (A549; first compound 8 µM): 0.199
relative viability (NCI-H1648; first compound 0.08 µM): 0.392
relative viability (NCI-H1648; first compound 0.8 µM): 0.466
relative viability (NCI-H1648; first compound 2.53 µM): 0.55
relative viability (NCI-H1648; first compound 8 µM): 0.517
relative viability (NCI-H522; first compound 0.08 µM): 0.679
relative viability (NCI-H522; first compound 0.253 µM): 0.693
relative viability (NCI-H522; first compound 0.8 µM): 0.615
relative viability (NCI-H522; first compound 2.53 µM): 0.698
relative viability (NCI-H522; first compound 8 µM): 0.771
relative viability (NCI-H2342; first compound 0.08 µM): 0.698
relative viability (NCI-H2342; first compound 0.253 µM): 0.74
relative viability (NCI-H2342; first compound 0.8 µM): 0.715
relative viability (NCI-H2342; first compound 2.53 µM): 0.746
relative viability (NCI-H2342; first compound 8 µM): 0.725
relative viability (SW 900; first compound 0.08 µM): 0.451
relative viability (SW 900; first compound 0.253 µM): 0.415
relative viability (SW 900; first compound 2.53 µM): 0.548
relative viability (SW 900; first compound 8 µM): 0.472

O=c1[nH]c2ccccc2n1C1CCN(CCCC(c2ccc(F)cc2)c2ccc(F)cc2)CC1 [Pimozide] + O=C(CCCCCCC(=O)Nc1ccccc1)NO [Vorinostat] (partner 1 µM)
relative viability (NCI-H1648; first compound 0.08 µM): 0.315
relative viability (NCI-H1648; first compound 0.8 µM): 0.527
relative viability (NCI-H1648; first compound 2.53 µM): 0.228
relative viability (NCI-H1648; first compound 8 µM): 0.347
relative viability (NCI-H522; first compound 0.08 µM): 0.848
relative viability (NCI-H522; first compound 0.253 µM): 0.908
relative viability (NCI-H522; first compound 0.8 µM): 0.673
relative viability (NCI-H522; first compound 2.53 µM): 0.817
relative viability (NCI-H522; first compound 8 µM): 0.81
relative viability (NCI-H2342; first compound 0.08 µM): 0.778
relative viability (NCI-H2342; first compound 0.253 µM): 0.77
relative viability (NCI-H2342; first compound 0.8 µM): 0.658
relative viability (NCI-H2342; first compound 2.53 µM): 0.75
relative viability (NCI-H2342; first compound 8 µM): 0.696
relative viability (SW 900; first compound 0.08 µM): 0.655
relative viability (SW 900; first compound 0.253 µM): 0.45
relative viability (SW 900; first compound 2.53 µM): 0.509
relative viability (SW 900; first compound 8 µM): 0.3
relative viability (IA-LM; first compound 0.08 µM): 0.931
relative viability (IA-LM; first compound 0.253 µM): 0.923
relative viability (IA-LM; first compound 2.53 µM): 0.913
relative viability (IA-LM; first compound 8 µM): 0.99

Reference: the supplement of paper PMC10307832
